# Biological target: Serine/threonine-protein kinase pim-1 (Homo sapiens) (UniProt P11309)
# Sequence (P11309 whole entry, looked up): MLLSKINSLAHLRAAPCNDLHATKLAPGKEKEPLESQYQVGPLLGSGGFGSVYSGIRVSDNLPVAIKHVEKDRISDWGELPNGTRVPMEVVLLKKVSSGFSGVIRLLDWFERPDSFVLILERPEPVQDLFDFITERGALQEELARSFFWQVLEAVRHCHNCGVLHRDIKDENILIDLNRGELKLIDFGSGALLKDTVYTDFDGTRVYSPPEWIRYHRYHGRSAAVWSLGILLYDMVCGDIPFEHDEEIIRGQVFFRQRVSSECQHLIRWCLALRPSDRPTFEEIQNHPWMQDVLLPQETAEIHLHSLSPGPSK
row,ΔTm [°C],Structure (SMILES)
1,1.6,N#C/C(=C\c1ccc(O)c(O)c1)C(=O)Nc1ccccc1
2,2.1,N#C/C(=C\c1ccc(O)c(O)c1)C(=O)NCc1ccccc1
3,0.7,COc1cc2ncnc(Nc3cccc(Br)c3)c2cc1OC

# Biological target: T1, Lymphokine-activated killer T-cell-originated protein kinase (Homo sapiens) (UniProt Q96KB5)
# T1 sequence (whole entry): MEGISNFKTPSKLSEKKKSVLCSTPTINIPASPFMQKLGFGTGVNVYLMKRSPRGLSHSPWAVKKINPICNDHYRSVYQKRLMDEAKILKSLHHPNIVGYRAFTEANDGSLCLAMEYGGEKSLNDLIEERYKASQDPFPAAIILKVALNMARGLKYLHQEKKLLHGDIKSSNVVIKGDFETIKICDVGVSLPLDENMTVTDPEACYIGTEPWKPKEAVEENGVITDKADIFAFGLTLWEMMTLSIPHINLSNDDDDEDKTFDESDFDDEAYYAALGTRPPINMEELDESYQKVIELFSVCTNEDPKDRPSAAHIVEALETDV
row,Structure (SMILES),ΔTm [°C]
1,N#C/C(=C\c1ccc(O)c(O)c1)C(=O)Nc1ccccc1,0.5
2,N#C/C(=C\c1ccc(O)c(O)c1)C(=O)NCc1ccccc1,0.7
3,COc1cc2ncnc(Nc3cccc(Br)c3)c2cc1OC,0.3

# Biological target: T2, Serine/threonine-protein kinase 17A (Homo sapiens) (UniProt Q9UEE5)
# T2 sequence (whole entry): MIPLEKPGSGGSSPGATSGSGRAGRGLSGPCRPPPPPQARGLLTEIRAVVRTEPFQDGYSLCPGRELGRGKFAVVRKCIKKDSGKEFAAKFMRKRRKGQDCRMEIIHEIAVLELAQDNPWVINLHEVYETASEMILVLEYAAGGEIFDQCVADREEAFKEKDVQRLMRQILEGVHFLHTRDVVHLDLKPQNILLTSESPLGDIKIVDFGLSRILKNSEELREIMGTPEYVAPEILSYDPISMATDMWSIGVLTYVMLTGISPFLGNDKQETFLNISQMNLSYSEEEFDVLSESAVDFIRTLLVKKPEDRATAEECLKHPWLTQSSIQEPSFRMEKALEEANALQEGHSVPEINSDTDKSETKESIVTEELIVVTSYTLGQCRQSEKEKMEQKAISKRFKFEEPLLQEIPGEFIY
row,ΔTm [°C],Structure (SMILES)
1,2.8,N#C/C(=C\c1ccc(O)c(O)c1)C(=O)Nc1ccccc1
2,4.4,N#C/C(=C\c1ccc(O)c(O)c1)C(=O)NCc1ccccc1
3,3.3,COc1cc2ncnc(Nc3cccc(Br)c3)c2cc1OC

# Biological target: Serine/threonine-protein kinase 26 (Homo sapiens) (UniProt Q9P289)
# Sequence (Q9P289 2-416 limits assumed): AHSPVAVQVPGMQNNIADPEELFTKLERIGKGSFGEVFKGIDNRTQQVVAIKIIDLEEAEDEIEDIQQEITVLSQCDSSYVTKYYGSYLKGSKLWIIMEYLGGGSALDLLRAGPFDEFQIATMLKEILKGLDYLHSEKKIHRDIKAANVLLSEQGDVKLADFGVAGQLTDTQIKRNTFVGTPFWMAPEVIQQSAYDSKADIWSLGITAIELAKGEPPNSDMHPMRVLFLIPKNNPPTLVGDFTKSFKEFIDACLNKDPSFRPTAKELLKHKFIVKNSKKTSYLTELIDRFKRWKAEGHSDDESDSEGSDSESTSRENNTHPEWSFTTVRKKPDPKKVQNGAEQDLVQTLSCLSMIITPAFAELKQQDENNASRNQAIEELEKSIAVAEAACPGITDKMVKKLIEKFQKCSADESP
row,ΔTm [°C],Structure (SMILES)
1,0.3,N#C/C(=C\c1ccc(O)c(O)c1)C(=O)Nc1ccccc1
2,0.1,N#C/C(=C\c1ccc(O)c(O)c1)C(=O)NCc1ccccc1
3,1.2,COc1cc2ncnc(Nc3cccc(Br)c3)c2cc1OC

# Biological target: Serine/threonine-protein kinase pim-2 (Homo sapiens, UniProt Q9P1W9)
# Sequence (Q9P1W9 whole entry, looked up): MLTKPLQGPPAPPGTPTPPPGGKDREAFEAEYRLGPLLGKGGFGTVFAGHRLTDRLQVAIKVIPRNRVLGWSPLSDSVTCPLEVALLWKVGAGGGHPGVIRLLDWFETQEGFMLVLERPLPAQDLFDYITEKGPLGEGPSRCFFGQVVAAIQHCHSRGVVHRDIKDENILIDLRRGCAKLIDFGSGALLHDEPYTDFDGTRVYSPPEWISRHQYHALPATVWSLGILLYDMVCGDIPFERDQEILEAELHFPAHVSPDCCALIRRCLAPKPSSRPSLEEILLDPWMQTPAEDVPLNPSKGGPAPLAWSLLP
row,ΔTm [°C],Structure (SMILES)
1,1.5,N#C/C(=C\c1ccc(O)c(O)c1)C(=O)Nc1ccccc1
2,1.9,N#C/C(=C\c1ccc(O)c(O)c1)C(=O)NCc1ccccc1
3,0.9,COc1cc2ncnc(Nc3cccc(Br)c3)c2cc1OC

# Biological target: Serine/threonine-protein kinase OSR1 (Homo sapiens) (UniProt O95747)
row,ΔTm [°C],Structure (SMILES)
1,0.6,N#C/C(=C\c1ccc(O)c(O)c1)C(=O)Nc1ccccc1
2,0.7,N#C/C(=C\c1ccc(O)c(O)c1)C(=O)NCc1ccccc1
3,0.6,COc1cc2ncnc(Nc3cccc(Br)c3)c2cc1OC

# Biological target: Serine/threonine-protein kinase PAK 5 (Homo sapiens) (UniProt Q9P286)
# Sequence (Q9P286 whole entry, looked up): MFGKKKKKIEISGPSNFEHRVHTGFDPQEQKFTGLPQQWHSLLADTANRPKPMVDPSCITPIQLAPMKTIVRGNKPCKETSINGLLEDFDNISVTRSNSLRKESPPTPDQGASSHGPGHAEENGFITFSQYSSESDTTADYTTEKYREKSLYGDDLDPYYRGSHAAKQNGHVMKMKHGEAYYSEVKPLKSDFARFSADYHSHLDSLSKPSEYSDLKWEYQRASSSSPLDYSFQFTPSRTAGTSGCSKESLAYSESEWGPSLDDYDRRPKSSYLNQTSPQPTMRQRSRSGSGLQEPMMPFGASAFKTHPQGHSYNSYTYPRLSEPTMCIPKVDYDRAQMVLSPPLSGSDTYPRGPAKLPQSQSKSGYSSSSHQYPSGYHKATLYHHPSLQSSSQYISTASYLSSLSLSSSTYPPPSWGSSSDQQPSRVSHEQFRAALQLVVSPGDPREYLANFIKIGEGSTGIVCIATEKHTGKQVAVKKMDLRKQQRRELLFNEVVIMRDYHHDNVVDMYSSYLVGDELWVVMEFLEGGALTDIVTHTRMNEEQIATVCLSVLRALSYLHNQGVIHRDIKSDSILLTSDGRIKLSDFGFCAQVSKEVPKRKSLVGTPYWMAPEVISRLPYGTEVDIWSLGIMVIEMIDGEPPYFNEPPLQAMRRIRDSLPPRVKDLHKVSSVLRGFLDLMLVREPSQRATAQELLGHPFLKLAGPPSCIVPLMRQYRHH
row,ΔTm [°C],Structure (SMILES)
1,0.4,N#C/C(=C\c1ccc(O)c(O)c1)C(=O)Nc1ccccc1
2,0.3,N#C/C(=C\c1ccc(O)c(O)c1)C(=O)NCc1ccccc1
3,0.3,COc1cc2ncnc(Nc3cccc(Br)c3)c2cc1OC

# Biological target: Serine/threonine-protein kinase pim-3 (Homo sapiens) (UniProt Q86V86)
row,ΔTm [°C],Structure (SMILES)
1,2.8,N#C/C(=C\c1ccc(O)c(O)c1)C(=O)Nc1ccccc1
2,3.1,N#C/C(=C\c1ccc(O)c(O)c1)C(=O)NCc1ccccc1
3,1.6,COc1cc2ncnc(Nc3cccc(Br)c3)c2cc1OC

# Biological target: Calcium/calmodulin-dependent protein kinase type II subunit gamma (Homo sapiens) (UniProt Q13555)
row,ΔTm [°C],Structure (SMILES)
1,-0.2,N#C/C(=C\c1ccc(O)c(O)c1)C(=O)Nc1ccccc1
2,-0.2,N#C/C(=C\c1ccc(O)c(O)c1)C(=O)NCc1ccccc1
3,0.1,COc1cc2ncnc(Nc3cccc(Br)c3)c2cc1OC

# Biological target: Serine/threonine-protein kinase 26 (Homo sapiens) (UniProt Q9P289)
# Remark: another data set of the same source
row,ΔTm [°C],Structure (SMILES)
1,0.4,N#C/C(=C\c1ccc(O)c(O)c1)C(=O)Nc1ccccc1
2,0,N#C/C(=C\c1ccc(O)c(O)c1)C(=O)NCc1ccccc1
3,0.6,COc1cc2ncnc(Nc3cccc(Br)c3)c2cc1OC

# Biological target: T3, Serine/threonine-protein kinase VRK1 (Homo sapiens) (UniProt Q99986)
# T3 sequence (whole entry): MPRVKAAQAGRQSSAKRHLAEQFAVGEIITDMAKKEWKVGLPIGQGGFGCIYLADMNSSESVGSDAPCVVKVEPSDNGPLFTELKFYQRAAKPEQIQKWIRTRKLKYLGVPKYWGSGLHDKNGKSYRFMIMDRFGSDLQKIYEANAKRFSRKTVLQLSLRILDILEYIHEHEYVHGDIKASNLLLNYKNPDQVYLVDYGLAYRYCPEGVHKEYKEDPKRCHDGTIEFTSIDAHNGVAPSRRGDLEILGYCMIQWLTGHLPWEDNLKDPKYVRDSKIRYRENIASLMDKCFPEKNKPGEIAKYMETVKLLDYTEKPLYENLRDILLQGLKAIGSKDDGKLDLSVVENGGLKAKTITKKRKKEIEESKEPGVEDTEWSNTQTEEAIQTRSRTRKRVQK
row,ΔTm [°C],Structure (SMILES)
1,0.2,N#C/C(=C\c1ccc(O)c(O)c1)C(=O)Nc1ccccc1
2,0.4,N#C/C(=C\c1ccc(O)c(O)c1)C(=O)NCc1ccccc1
3,0.7,COc1cc2ncnc(Nc3cccc(Br)c3)c2cc1OC

# Biological target: Dual specificity protein kinase CLK2 (Homo sapiens) (UniProt P49760)
# Sequence (P49760 whole entry, looked up): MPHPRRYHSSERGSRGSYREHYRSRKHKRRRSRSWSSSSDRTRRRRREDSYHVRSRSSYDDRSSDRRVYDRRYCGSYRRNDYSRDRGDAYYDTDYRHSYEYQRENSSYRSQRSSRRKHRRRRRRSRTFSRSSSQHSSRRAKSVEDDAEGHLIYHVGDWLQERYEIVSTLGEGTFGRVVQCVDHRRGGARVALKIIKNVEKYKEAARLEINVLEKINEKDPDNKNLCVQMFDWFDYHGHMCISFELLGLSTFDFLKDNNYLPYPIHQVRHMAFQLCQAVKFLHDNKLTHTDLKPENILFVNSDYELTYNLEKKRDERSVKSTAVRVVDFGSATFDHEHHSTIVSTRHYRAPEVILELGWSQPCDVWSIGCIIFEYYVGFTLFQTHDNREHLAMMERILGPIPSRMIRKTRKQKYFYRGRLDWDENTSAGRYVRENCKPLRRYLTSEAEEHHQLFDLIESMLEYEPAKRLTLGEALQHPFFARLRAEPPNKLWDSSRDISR
row,ΔTm [°C],Structure (SMILES)
1,0.9,N#C/C(=C\c1ccc(O)c(O)c1)C(=O)Nc1ccccc1
2,0.7,N#C/C(=C\c1ccc(O)c(O)c1)C(=O)NCc1ccccc1
3,0.7,COc1cc2ncnc(Nc3cccc(Br)c3)c2cc1OC

# Biological target: Serine/threonine-protein kinase 25 (Homo sapiens) (UniProt O00506)
# Sequence (O00506 whole entry, looked up): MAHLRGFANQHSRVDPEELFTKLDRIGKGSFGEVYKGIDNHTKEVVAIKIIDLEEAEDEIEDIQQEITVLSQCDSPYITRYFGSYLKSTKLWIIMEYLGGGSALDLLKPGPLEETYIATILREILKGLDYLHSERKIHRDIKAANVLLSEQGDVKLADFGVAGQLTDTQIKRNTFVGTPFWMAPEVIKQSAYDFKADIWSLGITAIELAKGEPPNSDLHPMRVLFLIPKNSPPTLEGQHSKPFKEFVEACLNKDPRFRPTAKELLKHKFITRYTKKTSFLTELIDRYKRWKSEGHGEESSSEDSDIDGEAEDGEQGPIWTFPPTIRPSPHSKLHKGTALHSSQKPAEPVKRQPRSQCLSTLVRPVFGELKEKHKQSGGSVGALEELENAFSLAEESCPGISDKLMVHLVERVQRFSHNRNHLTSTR
row,ΔTm [°C],Structure (SMILES)
1,0.5,N#C/C(=C\c1ccc(O)c(O)c1)C(=O)Nc1ccccc1
2,-0.4,N#C/C(=C\c1ccc(O)c(O)c1)C(=O)NCc1ccccc1
3,1.4,COc1cc2ncnc(Nc3cccc(Br)c3)c2cc1OC

# Biological target: Cyclin-dependent kinase 2 (Homo sapiens, UniProt P24941)
row,ΔTm [°C],Structure (SMILES)
1,1.1,N#C/C(=C\c1ccc(O)c(O)c1)C(=O)Nc1ccccc1
2,0.9,N#C/C(=C\c1ccc(O)c(O)c1)C(=O)NCc1ccccc1
3,0.1,COc1cc2ncnc(Nc3cccc(Br)c3)c2cc1OC

# Biological target: Ribosomal protein S6 kinase alpha-3 (Homo sapiens) (UniProt P51812)
# Sequence (P51812 whole entry): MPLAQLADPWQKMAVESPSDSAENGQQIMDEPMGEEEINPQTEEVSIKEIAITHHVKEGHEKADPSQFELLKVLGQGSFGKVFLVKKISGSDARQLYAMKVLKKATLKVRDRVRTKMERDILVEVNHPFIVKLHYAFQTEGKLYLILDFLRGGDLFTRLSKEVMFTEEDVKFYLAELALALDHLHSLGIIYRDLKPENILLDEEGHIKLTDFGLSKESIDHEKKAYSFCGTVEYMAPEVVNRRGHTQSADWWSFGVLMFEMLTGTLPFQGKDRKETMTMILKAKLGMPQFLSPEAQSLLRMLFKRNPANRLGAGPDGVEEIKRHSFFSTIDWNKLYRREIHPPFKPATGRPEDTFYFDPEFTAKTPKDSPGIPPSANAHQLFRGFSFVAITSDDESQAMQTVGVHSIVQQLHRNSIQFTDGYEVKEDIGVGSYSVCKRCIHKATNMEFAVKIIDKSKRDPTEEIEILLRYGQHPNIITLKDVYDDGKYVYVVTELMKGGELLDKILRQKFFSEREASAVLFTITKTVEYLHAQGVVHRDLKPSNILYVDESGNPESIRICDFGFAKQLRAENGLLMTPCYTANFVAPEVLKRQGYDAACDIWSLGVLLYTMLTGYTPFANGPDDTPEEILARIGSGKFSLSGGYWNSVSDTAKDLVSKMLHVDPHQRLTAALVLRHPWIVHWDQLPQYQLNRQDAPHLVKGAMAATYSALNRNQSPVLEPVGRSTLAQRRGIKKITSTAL
row,ΔTm [°C],Structure (SMILES)
1,0.8,N#C/C(=C\c1ccc(O)c(O)c1)C(=O)Nc1ccccc1
2,1.2,N#C/C(=C\c1ccc(O)c(O)c1)C(=O)NCc1ccccc1
3,0.1,COc1cc2ncnc(Nc3cccc(Br)c3)c2cc1OC

# Biological target: Mitogen-activated protein kinase 11 (Homo sapiens, UniProt Q15759)
# Sequence (Q15759 whole entry): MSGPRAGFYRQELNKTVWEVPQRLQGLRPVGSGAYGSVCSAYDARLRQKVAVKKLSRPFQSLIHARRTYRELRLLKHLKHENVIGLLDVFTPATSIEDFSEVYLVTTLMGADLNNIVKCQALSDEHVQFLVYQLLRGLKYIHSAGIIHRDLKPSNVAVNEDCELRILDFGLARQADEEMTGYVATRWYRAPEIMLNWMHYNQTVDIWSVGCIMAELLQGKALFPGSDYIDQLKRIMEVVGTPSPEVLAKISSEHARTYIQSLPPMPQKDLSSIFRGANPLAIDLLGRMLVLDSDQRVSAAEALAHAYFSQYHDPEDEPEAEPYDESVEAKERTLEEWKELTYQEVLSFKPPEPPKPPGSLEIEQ
row,ΔTm [°C],Structure (SMILES)
1,0.2,N#C/C(=C\c1ccc(O)c(O)c1)C(=O)Nc1ccccc1
2,0.4,N#C/C(=C\c1ccc(O)c(O)c1)C(=O)NCc1ccccc1
3,1.8,COc1cc2ncnc(Nc3cccc(Br)c3)c2cc1OC

# Biological target: T4, Myotonin-protein kinase (Homo sapiens) (UniProt Q09013)
# T4 sequence (whole entry): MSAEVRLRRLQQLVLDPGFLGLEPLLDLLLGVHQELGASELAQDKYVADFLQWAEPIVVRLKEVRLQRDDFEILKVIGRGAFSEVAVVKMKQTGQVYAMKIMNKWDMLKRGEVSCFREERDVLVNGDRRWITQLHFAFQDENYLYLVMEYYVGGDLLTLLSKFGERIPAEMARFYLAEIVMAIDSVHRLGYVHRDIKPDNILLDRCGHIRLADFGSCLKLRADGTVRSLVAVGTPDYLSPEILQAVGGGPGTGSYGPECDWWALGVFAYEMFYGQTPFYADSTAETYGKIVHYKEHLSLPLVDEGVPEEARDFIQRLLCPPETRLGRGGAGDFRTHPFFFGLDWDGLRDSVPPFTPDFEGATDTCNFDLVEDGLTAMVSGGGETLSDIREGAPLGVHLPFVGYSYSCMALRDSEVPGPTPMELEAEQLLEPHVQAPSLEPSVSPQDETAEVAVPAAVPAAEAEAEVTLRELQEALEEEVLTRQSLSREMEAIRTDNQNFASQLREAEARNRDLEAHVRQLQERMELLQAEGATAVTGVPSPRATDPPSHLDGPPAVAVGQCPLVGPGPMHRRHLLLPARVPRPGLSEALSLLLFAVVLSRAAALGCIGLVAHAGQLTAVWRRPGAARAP
row,ΔTm [°C],Structure (SMILES)
1,-0.1,N#C/C(=C\c1ccc(O)c(O)c1)C(=O)Nc1ccccc1
2,-0.6,N#C/C(=C\c1ccc(O)c(O)c1)C(=O)NCc1ccccc1
3,0.3,COc1cc2ncnc(Nc3cccc(Br)c3)c2cc1OC

# Biological target: Calcium/calmodulin-dependent protein kinase type II subunit delta (Homo sapiens) (UniProt Q13557)
row,ΔTm [°C],Structure (SMILES)
1,1,N#C/C(=C\c1ccc(O)c(O)c1)C(=O)Nc1ccccc1
2,0.3,N#C/C(=C\c1ccc(O)c(O)c1)C(=O)NCc1ccccc1
3,-0.5,COc1cc2ncnc(Nc3cccc(Br)c3)c2cc1OC

# Biological target: Dual specificity mitogen-activated protein kinase kinase 2 (Homo sapiens, UniProt P36507)
row,ΔTm [°C],Structure (SMILES)
1,0.3,N#C/C(=C\c1ccc(O)c(O)c1)C(=O)Nc1ccccc1
2,0.2,N#C/C(=C\c1ccc(O)c(O)c1)C(=O)NCc1ccccc1
3,0.3,COc1cc2ncnc(Nc3cccc(Br)c3)c2cc1OC

# Biological target: Calcium/calmodulin-dependent protein kinase type 1D (Homo sapiens) (UniProt Q8IU85)
# Sequence (Q8IU85 whole entry, looked up): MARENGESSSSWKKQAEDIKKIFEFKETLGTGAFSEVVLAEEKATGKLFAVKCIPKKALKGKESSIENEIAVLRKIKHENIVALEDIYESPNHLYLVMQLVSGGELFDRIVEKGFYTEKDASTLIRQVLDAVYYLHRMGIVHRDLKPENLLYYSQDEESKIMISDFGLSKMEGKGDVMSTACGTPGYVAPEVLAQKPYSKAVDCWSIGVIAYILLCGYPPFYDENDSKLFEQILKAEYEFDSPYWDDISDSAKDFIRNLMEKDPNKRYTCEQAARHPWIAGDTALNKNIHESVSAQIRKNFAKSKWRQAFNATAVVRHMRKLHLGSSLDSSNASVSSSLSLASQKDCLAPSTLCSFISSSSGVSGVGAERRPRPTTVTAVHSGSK
row,ΔTm [°C],Structure (SMILES)
1,0.3,N#C/C(=C\c1ccc(O)c(O)c1)C(=O)Nc1ccccc1
2,0.2,N#C/C(=C\c1ccc(O)c(O)c1)C(=O)NCc1ccccc1
3,0.3,COc1cc2ncnc(Nc3cccc(Br)c3)c2cc1OC

# Biological target: Death-associated protein kinase 3 (Homo sapiens) (UniProt O43293)
# Sequence (O43293 whole entry, looked up): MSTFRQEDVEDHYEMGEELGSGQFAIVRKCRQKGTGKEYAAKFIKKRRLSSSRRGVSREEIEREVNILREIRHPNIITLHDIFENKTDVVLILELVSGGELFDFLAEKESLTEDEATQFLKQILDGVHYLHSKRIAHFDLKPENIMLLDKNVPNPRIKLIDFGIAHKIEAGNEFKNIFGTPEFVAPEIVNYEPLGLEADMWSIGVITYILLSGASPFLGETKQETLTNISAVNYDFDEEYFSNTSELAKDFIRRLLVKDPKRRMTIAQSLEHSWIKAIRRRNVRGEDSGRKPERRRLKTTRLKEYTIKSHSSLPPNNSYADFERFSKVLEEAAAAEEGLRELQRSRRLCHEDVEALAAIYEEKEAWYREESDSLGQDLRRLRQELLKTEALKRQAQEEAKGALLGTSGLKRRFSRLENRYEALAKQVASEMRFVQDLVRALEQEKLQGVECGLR
row,Structure (SMILES),ΔTm [°C]
1,N#C/C(=C\c1ccc(O)c(O)c1)C(=O)Nc1ccccc1,1.4
2,N#C/C(=C\c1ccc(O)c(O)c1)C(=O)NCc1ccccc1,1.8
3,COc1cc2ncnc(Nc3cccc(Br)c3)c2cc1OC,1.8
